Assay results published in a melting point compilation (Tetko et al.; mined from patent text by program, amines drawn as free bases though some values may be those of a salt).

First: CC(C)(C)c1ccc(Oc2nc(Nc3cccc(C(=O)O)c3)nc(Oc3ccccc3)n2)cc1
Second: COC(=O)c1cccc(-c2nc(COc3ccc(C=O)cc3)c(C)o2)c1
The melting point of the first is higher: 245 to 247 °C for the first, 103 to 104 °C for the second.

Compared with N#Cc1ccccc1N1CCN(CC(=O)Nc2ccccc2)CC1, O=C(Nc1cccc(C(F)(F)F)c1)C(=O)N1CCC(Cc2ccccc2)CC1 is lower in melting point: 137 to 138 °C for the first, 87 to 89 °C for the second.

Compared with CCCCCCCCCCCc1nnc2n1-c1sc(CC)cc1C(c1ccc(O)cc1)OC2 (stereo not given), CCOC(=O)CCCCn1c(C(=O)NCc2nnc(C)n2-c2sc(CC)cc2C(=O)c2ccccc2Cl)cc2ccccc21 is lower in melting point: 96 to 98 °C for the first, 85 to 87 °C for the second.

First: CCCc1noc(-c2ncn3c2[C@@H]2CCCN2C(=O)c2c(Cl)cccc2-3)n1
Second: CCn1ncc2c(OC)c3c(nc21)C(=O)c1ccccc1CC3
The melting point of the first is lower: 176 to 178 °C for the first, 197 to 200 °C for the second.

First: Cc1cc(OCc2cnc(-c3cccc(C(F)(F)F)c3)nc2C2CC2)ccc1OC(C)(C)C(=O)O
Second: FC(F)(F)c1cccc(-c2nc(-c3ccccn3)no2)c1
The melting point of the first is higher: 175 to 176 °C for the first, 116 to 118 °C for the second.

Compared with O=C1C2=C(CCCC2)C(=O)N1c1cc(OC2CCCCC2)c(Cl)cc1F, O=C(NCCC1CCCCC1)c1cc(-c2ncc(Cl)cc2C(=O)O)ccc1Cl is higher in melting point: 102 to 103 °C for the first, 208 to 211 °C for the second.

Compared with CCCCNc1nc(N)nc(-c2ccc(Cl)c(Cl)c2)n1, CC(Oc1ccc(Cl)cc1Cl)c1nnc(N)s1 (stereo not given) is lower in melting point: 176 to 179 °C for the first, 119 to 123 °C for the second.

Compared with CC(=O)C(=[N+]=[N-])C(=O)OCc1ccc([N+](=O)[O-])cc1, CN(C)S(=O)(=O)c1cc([N+](=O)[O-])ccc1Cl is higher in melting point: 132 °C for the first, 138 to 140 °C for the second.

First: O=C(OCCCl)c1ccccc1CS(=O)(=O)Cl
Second: CCOC(=O)C(CC(=O)c1ccccc1Cl)(NC(C)=O)C(=O)OCC
The melting point of the first is lower: 66 to 67 °C for the first, 157 to 158 °C for the second.

First: CCCc1c(/C=C/c2ccccc2)nc2ccc(C(=O)O)cn2c1=O
Second: Cc1oc(-c2ccccc2)nc1COc1cccc(/C=C/C=O)c1
The melting point of the first is higher: 250 to 252 °C for the first, 103 to 104 °C for the second.

First: N#Cc1nn(-c2c(Cl)cc(C(F)(F)F)cc2Cl)c(I)c1SC(F)(F)F
Second: O=C(Nc1ccc(-n2nc(C(F)(F)F)cc2C(F)(F)F)cc1)c1ccoc1
The melting point of the first is lower: 187 to 188 °C for the first, 206 to 207 °C for the second.

Compared with CC(=O)c1cccc(-n2ccnc2)c1, Cc1ccnn(-c2cccc(Cl)c2)c1=O is higher in melting point: 69 to 71 °C for the first, 244 to 245 °C for the second.

First: COC1OCC[C@@H]1NC(=O)[C@H](Cc1ccccc1)NC(=O)CNC(=O)COc1ccc2c(c1)Nc1ccccc1S2 (stereo not given in full)
Second: COc1cc(N(C)C)ccc1C(=O)NC1CCN(C(C)CC(C(=O)N(C)C)(c2ccccc2)c2ccccc2)CC1O (stereo not given)
The melting point of the first is lower: 203 to 204 °C for the first, 211 °C for the second.

Compared with CN(C)CC#Cc1cnc2c(c1)N(Cc1cc(Cl)ccc1Cl)CCN2, CCC(CC)c1ccc(Cl)c2nc(Oc3c(C)cc(Cl)cc3Cl)n(C)c12 is lower in melting point: 168 °C for the first, 155 to 157 °C for the second.

First: COC(=O)c1c(C2=NC(C)(C(C)C)C(=O)N2)cccc1[N+](=O)[O-] (stereo not given)
Second: COc1cc(C(=O)c2ccccc2)cc([N+](=O)[O-])c1OC
The melting point of the first is higher: 159 to 162 °C for the first, 78 to 80 °C for the second.

Compared with O=C(Nc1cccc2c1C(=O)c1c-2n[nH]c1-c1ccc(C(=O)NN2CCCCC2)s1)NN1CCOCC1, NC(=O)Cc1ccc(-c2ccc(C(CC3CCOCC3)c3ccc(S(=O)(=O)C4CC4)cc3)[nH]2)nc1 (stereo not given) is lower in melting point: 189 to 191 °C for the first, 151 to 153 °C for the second.

Compared with CCC(O)(CCC(N)=O)c1ccc(Br)cc1 (stereo not given), CCOC(=O)Cc1cccc(N)c1 is higher in melting point: 122 to 123 °C for the first, 135 °C for the second.

Compared with CCSc1nc2cccc(C(=O)OC)c2n1Cc1ccc(-c2ccccc2-c2nc(=O)o[nH]2)cc1, COc1ccc(CCc2cc3c(s2)-n2c(C)nnc2CN=C3c2ccccc2Cl)cc1 is lower in melting point: 210 to 211 °C for the first, 100 to 105 °C for the second.

Compared with O=C1OCCN1CCCn1ccnc1[N+](=O)[O-], CC(C)CCCOc1nc(N)c([N+](=O)[O-])cc1Cl is lower in melting point: 89 to 91 °C for the first, 53 to 54 °C for the second.

First: COC1(C[N+](=O)[O-])OC(=O)c2cc(C)c(C)cc21 (stereo not given)
Second: CCOC(=O)C1(C(=O)Nc2ccc(Br)cc2C)OC1C (stereo not given)
The melting point of the first is higher: 147 to 150 °C for the first, 57 to 60 °C for the second.

First: COC1CCN(c2c(F)cc3c(=O)c(C(=O)O)cn4c3c2CCC4C)CC1 (stereo not given)
Second: COc1cc2ncnc(N3CCC(C(C)CN4CCCS4(=O)=O)C(O)C3)c2cc1OC (stereo not given)
The melting point of the first is higher: 249 to 251 °C for the first, 173 to 174 °C for the second.

First: COc1cc(C(=O)NS(=O)(=O)c2ccccc2C)ccc1Cc1cn(C)c2ccc(CCNC(=O)N(C)C)cc12
Second: CCCCNCc1ccc(-c2ccccc2S(=O)(=O)NC(C)(C)C)cc1
The melting point of the first is higher: 124 to 131 °C for the first, 98 to 99 °C for the second.

First: N#Cc1ccc(OCc2ccsc2)cc1OC(C(=O)O)c1ccccc1F (racemic)
Second: CC(=O)C(C)Oc1ccc2[nH]c(C)c(C(=O)OCc3ccccc3)c2c1 (stereo not given)
The melting point of the first is higher: 159 to 161 °C for the first, 94 to 98 °C for the second.

Going from Cc1cc(=O)n(-c2ccc(C(F)(F)F)cc2)[nH]1 to COC(=N)c1cc(Oc2ccc(C(F)(F)F)cc2Cl)ccc1[N+](=O)[O-], the melting point falls from 130 °C to 46 °C.

First: CCCCNS(=O)(=O)CC(O)C(O)C(CC1CCCCC1)NC(=O)c1ccccn1 (stereo not given)
Second: CCCCCCCNC(=O)Nc1ccccc1C(=O)NC1CCCNC1 (stereo not given)
The melting point of the first is higher: 167 to 170 °C for the first, 165 °C for the second.

Compared with O=c1[nH]c2ccc(-c3cccc([N+](=O)[O-])c3)cc2o1, Nc1nc2ccccc2n1-c1cccc(-c2ccc3[nH]ccc3c2)c1 is lower in melting point: 280 to 281 °C for the first, 120 to 123 °C for the second.

Compared with CC(C)(C)c1c(Cl)nc(Cl)nc1Cl, CC(=O)OCC1OC(n2cc(C#N)c3c(Cl)nc(Cl)nc32)C(OC(C)=O)C1OC(C)=O (stereo not given) is higher in melting point: 58 to 59 °C for the first, 70 to 75 °C for the second.

Compared with COC(=O)c1ccc2c(c1)Sc1ccc(F)cc1C(=O)C2, COC(=O)c1nc(C)c(-c2ccnc3ccccc23)s1 is lower in melting point: 129 to 131 °C for the first, 116 to 117 °C for the second.

First: C=CCOc1ccc2c(C)cc(=O)oc2c1C(=O)C=Cc1cccnc1
Second: COc1cc(CCCC(=O)O)ccc1OCc1nc(-c2ccco2)oc1C
The melting point of the first is lower: 124 to 126 °C for the first, 129 to 130 °C for the second.

First: Cc1cc(-n2cncn2)c2cccc(C)c2n1
Second: COc1nc2ccccc2c2c1ncn2CC(C)C
The melting point of the first is lower: 99 to 100 °C for the first, 111 to 114 °C for the second.

First: CC(C)(C)NCC(O)COc1ccccc1-c1ccc(=S)[nH]n1 (stereo not given)
Second: CCOCc1nc2c(N)nc3cc(-c4ccccc4)ccc3c2n1CC(C)(C)O
The melting point of the first is lower: 186 to 189 °C for the first, 211 to 212 °C for the second.

Compared with C=Cn1nc(-c2cc(C(C)(C)C)c(O)c(C(C)(C)C)c2)c2ccc(C)nc21, CC(C)n1nc(-c2cc(C(N)=O)c(Cl)nc2-c2ccccc2)ccc1=O is higher in melting point: 136 to 137 °C for the first, 199 to 200 °C for the second.

First: CCOC(=O)C1=C(C)NC(SCc2ccc(OC)cc2)=NC1c1cccc(Cl)c1Cl (stereo not given)
Second: COc1c(Cl)ccnc1CSc1nc2cc(OC(F)F)ccc2[nH]1
The melting point of the first is higher: 134 to 135 °C for the first, 94 to 99 °C for the second.

First: CCCc1nc(C(C)=O)c(C(=O)OCC)[nH]1
Second: CCCN(C(=O)OCC(C)C)C1Cc2ccc(C3=NNC(=O)CC3)cc2C1 (stereo not given)
The melting point of the first is lower: 76 to 78 °C for the first, 161 to 162 °C for the second.

First: CSc1ccc(C(=O)C(C)CC(=O)O)cc1 (stereo not given)
Second: CC(C(=O)O)c1ccc2c(c1)C(=O)CC(C(C)C)O2 (stereo not given)
The melting point of the first is lower: 69 to 71 °C for the first, 94 to 95 °C for the second.

First: CN1CCCC1=NC(=O)Nc1c(Cl)cccc1Cl
Second: CC(=CN=Cc1ccccc1Cl)c1cccs1
The melting point of the first is higher: 134 to 136 °C for the first, 102 °C for the second.

First: NS(=O)(=O)c1cc2c(cc1Cl)C(=O)N(Cc1cccnc1)C2=O
Second: Cc1[nH]c2cccc(/C=C/C(=O)OCc3ccccc3)c2c1Cn1ccnc1
The melting point of the first is higher: 210 to 212 °C for the first, 207 to 208 °C for the second.

First: Cc1cc2c(c3c1NC(=O)C(C)(C)C3)OC(C)(CBr)C2 (stereo not given)
Second: Cc1c(C)c(N2CCN(c3ccc(C(C)O)cc3)CC2)c(C)c2c1OC(C)(C)C2 (stereo not given)
The melting point of the first is higher: 158 to 160 °C for the first, 133 to 136 °C for the second.

First: CC(C)[C@](C)(O)C(=O)O
Second: CCC(N)(P(=O)(O)O)P(=O)(O)O
The melting point of the first is lower: 47 to 49 °C for the first, 282 °C for the second.

First: NC(=O)c1cnn2c(-c3cccc(F)c3)ccnc12
Second: CCOC(=O)c1cc(C#Cc2ccccn2)c2ccccc2n1
The melting point of the first is higher: 247 to 249 °C for the first, 129 to 131 °C for the second.

First: N#Cc1ccc2c(c1)C(=O)c1cc3c(cc1OC2)OCO3
Second: NC(=O)CC1CN=C(c2cc3cc(OC(F)(F)F)cc(NS(=O)(=O)c4cccs4)c3[nH]2)S1 (stereo not given)
The melting point of the first is lower: 217 to 220 °C for the first, 239 to 240 °C for the second.

First: CCOC(OCC)c1cn2cccc(CO)c2n1
Second: COc1cc(C(C)=O)ccc1OCCN1CCN(c2nsc3ccccc23)CC1
The melting point of the first is lower: 87 to 89 °C for the first, 98 to 100 °C for the second.

Compared with Nc1ccc(-c2noc(-c3cnc4ccc(-c5ccc(C(F)(F)F)cc5)cn34)n2)cn1, CSCC1(c2onc(-c3ccc(O)cc3)c2-c2ccccc2)CC1 is lower in melting point: 258 °C for the first, 176 to 177 °C for the second.

First: Cc1c(Cl)cc(Cl)cc1Br
Second: Cc1cc(Oc2cc(C(F)(F)F)nn2C)nc(-c2ccsc2)n1
The melting point of the first is lower: 84 to 85 °C for the first, 122 °C for the second.

First: O=C(N[C@H]1CC[C@H](CCN2CCC(c3cccc4c3CCO4)CC2)CC1)c1ccc2ncccc2c1
Second: C=CCN1C2CCC1C1CCC2N1C(c1ccc(C(=O)N(C)C)cc1)c1cccc(OC)c1 (stereo not given)
The melting point of the first is higher: 238 °C for the first, 100 to 103 °C for the second.

First: N#CC(=NO)C(=O)c1ccccc1
Second: C[C@@H]1C[C@H](C)CN(C(=O)[C@@H]2Cc3ccccc3N2c2nccs2)C1
The melting point of the first is lower: 117 to 119 °C for the first, 172 to 174 °C for the second.

First: CO[C@@H]([C@H](OC)[C@H](O)COS(C)(=O)=O)[C@H](O)COS(C)(=O)=O
Second: Cc1c(C)c2c(c(C)c1OCc1ccc(S(C)(=O)=O)cc1)C(c1ccc(C(C)C)cc1)C(C)(C)O2 (stereo not given)
The melting point of the first is lower: 112 to 114 °C for the first, 161 to 162 °C for the second.

First: CC(C)(C)OC(=O)N1CCN(c2nc(N)c3nc(-c4ccccc4)c(N)nc3n2)CC1
Second: O=C(O)c1ccc2cc([N+](=O)[O-])c3ccc(C(=O)O)nc3c2n1
The melting point of the first is higher: 240 to 242 °C for the first, 218 to 220 °C for the second.

First: Cc1nc([C@H](Cc2ccccn2)N(C=O)c2cc3ccccc3[nH]2)n(C)c1-c1ccc(-n2ccnc2)cc1
Second: Cc1cccc(SCC(=O)C23CC4CC(CC(C4)C2)C3)n1
The melting point of the first is higher: 156 to 157 °C for the first, 116 °C for the second.

First: CCCCCC(O)CCCN(CCCCCCC(=O)O)C(N)=O (stereo not given)
Second: Cn1cc2c(n1)-c1cnn(C)c1CC2(C)C
The melting point of the first is lower: 75 to 76 °C for the first, 172 to 173 °C for the second.
